# Source: patent EP2508198B1, “Peptides for suppressing inflammation reactions in hemodialysis” (Fresenius Medical Care Deutschland GmbH, priority 2011, dated 2014)
# Residues, ends and D or L forms follow the SMILES beside them.
# Columns and labels:
# IL-6 = test: Whole blood from uremic patients stimulated ex vivo with LPS with or without peptides (non heated and heated), IL-6 ELISA; type: cell-based, human; conditions: whole blood of uremic patients, LPS 1 ng/ml, 24 h; average over the tested concentrations
# Experimental: (§1) Whole blood studies with blood from uremic patients including heat sterilization experiments
# (§2) A first goal of this experiment was to test whether the three amino acid antiinflammatory peptide KPV (unpegylated and pegylated version "monopeptide") will retain its activity under conditions of steam sterilization at 125°C for 15 min used in the production process of dialysis modules. A second goal was to study the anti-inflammatory effect of alpha-MSH and the peptides in uremic patients, which represent the real clinical situation.
# (§3) To perform this experiment whole blood samples were taken from voluntary uremic patients (n=10) and subsequently stimulated ex vivo with lipopolysaccharide (LPS) with or without alpha-MSH, KPV or pegylated KPV (non heated and heated) and TNF-α and IL-6 release was determined by ELISA.
# (§4) 25 ml blood from 10 uremic patients (dialysis patients treated at the hospital in Konstanz, Germany) was drawn and blood values were analyzed immediately. Blood was 1:10 diluted with PBS buffer and each stimulation condition was performed in triplicates and incubated at 200 µl in 96 well plates. […]
# [1] = test system: LPS-induced TNF-α release; test: Ex vivo stimulation of human PBMCs with LPS (pre-incubation or co-stimulation with peptides), TNF-α ELISA of supernatants; type: cell-based; design: TNF-α, Donor 2 / TNF-α, Donor 3 / TNF-α, Donor 4 / TNF-α, Donor 5 / TNF-α, Donor 6 / TNF-α, MV+SD: unit not given here; conditions: for TNF-α, %: % of LPS control c (100.00); for effect on LPS-induced TNF-α release ("inflammation"): pre-stimulation or co-incubation
# Experimental: Ex vivo stimulation of human peripheral blood mononuclear cells (PBMCs)
# For the stimulation of PBMCs the following concentrations were chosen: • LPS 1 ng/ml alone • α-MSH • ∘ 1µM; 10µM; 100µM • Peg-KPV (pegylated tripeptide) • ∘ 1µM; 10µM; 100µM; 1000µM
# The stimulation procedure was as described below:
# All cells were incubated for 24h and centrifuged at 1700 rpm and supernatants were used for TNF- α ELISA measurement according to manufacturer's protocols.
# TNF-α = test: Whole blood from uremic patients stimulated ex vivo with LPS with or without peptides (non heated and heated), TNF-α ELISA; type: cell-based, human; conditions: whole blood of uremic patients, LPS 1 ng/ml, 24 h; average over the tested concentrations
# Experimental: as §1, §2, §3, §4
# [2] = LPS 3 h pre-incubation, then LPS+peptide 24h, peptide 1 µM
# [3] = LPS 3 h pre-incubation, then LPS+peptide 24h, peptide 10 µM
# [4] = LPS 3 h pre-incubation, then LPS+peptide 24h, peptide 100 µM
# [5] = LPS 3 h pre-incubation, then LPS+peptide 24h, peptide 1000 µM
# [6] = LPS + peptide simultaneously, 24h, peptide 1 µM
# [7] = LPS + peptide simultaneously, 24h, peptide 10 µM
# [8] = LPS + peptide simultaneously, 24h, peptide 100 µM
# [9] = LPS + peptide simultaneously, 24h, peptide 1000 µM
# [10] = mean of donors, LPS 3 h pre-incubation, then LPS+peptide 24h, peptide 1 µM
# [11] = mean of donors, LPS 3 h pre-incubation, then LPS+peptide 24h, peptide 10 µM
# [12] = mean of donors, LPS 3 h pre-incubation, then LPS+peptide 24h, peptide 100 µM
# [13] = mean of donors, LPS + peptide simultaneously, 24h, peptide 1 µM
# [14] = mean of donors, LPS + peptide simultaneously, 24h, peptide 10 µM
# [15] = mean of donors, LPS + peptide simultaneously, 24h, peptide 100 µM
compound,measurement,setting,value
"CC(=O)N[C@@H](CCCCN)C(=O)N1CCC[C@H]1C(=O)N[C@H](C(N)=O)C(C)C [KPV, Ac-Lys-Pro-Val-NH2] (Ac-Lys-Pro-Val-NH2)",average inhibition for IL-6,IL-6,around 20%
same,"TNF-α, %",[1]; [2],85.28%
same,"TNF-α, %",[1]; [3],83.53%
same,"TNF-α, %",[1]; [4],73.40%
same,"TNF-α, %",[1]; [5],38.98%
same,"TNF-α, %",[1]; [6],78.64%
same,"TNF-α, %",[1]; [7],74.30%
same,"TNF-α, %",[1]; [8],65.76%
same,"TNF-α, %",[1]; [9],25.35%
same,"TNF-α, Donor 2",[1]; [2],4025
same,"TNF-α, Donor 3",[1]; [2],4554
same,"TNF-α, Donor 4",[1]; [2],3541
same,"TNF-α, Donor 5",[1]; [2],2301
same,"TNF-α, Donor 6",[1]; [2],4299
same,"TNF-α, Donor 2",[1]; [3],4126
same,"TNF-α, Donor 3",[1]; [3],4387
same,"TNF-α, Donor 4",[1]; [3],3666
same,"TNF-α, Donor 5",[1]; [3],2209
same,"TNF-α, Donor 6",[1]; [3],3949
same,"TNF-α, Donor 2",[1]; [4],3542
same,"TNF-α, Donor 3",[1]; [4],5022
same,"TNF-α, Donor 4",[1]; [4],2886
same,"TNF-α, Donor 5",[1]; [4],1931
same,"TNF-α, Donor 6",[1]; [4],3731
same,"TNF-α, Donor 3",[1]; [5],1816
same,"TNF-α, Donor 4",[1]; [5],1494
same,"TNF-α, Donor 5",[1]; [5],1054
same,"TNF-α, Donor 6",[1]; [5],2482
same,"TNF-α, Donor 2",[1]; [6],3426
same,"TNF-α, Donor 3",[1]; [6],3955
same,"TNF-α, Donor 4",[1]; [6],3702
same,"TNF-α, Donor 5",[1]; [6],1893
same,"TNF-α, Donor 6",[1]; [6],3541
same,"TNF-α, Donor 2",[1]; [7],3154
same,"TNF-α, Donor 3",[1]; [7],3907
same,"TNF-α, Donor 4",[1]; [7],3369
same,"TNF-α, Donor 5",[1]; [7],1706
same,"TNF-α, Donor 6",[1]; [7],3470
same,"TNF-α, Donor 2",[1]; [8],2562
same,"TNF-α, Donor 3",[1]; [8],3505
same,"TNF-α, Donor 4",[1]; [8],3077
same,"TNF-α, Donor 5",[1]; [8],1525
same,"TNF-α, Donor 6",[1]; [8],3142
same,"TNF-α, Donor 3",[1]; [9],931
same,"TNF-α, Donor 4",[1]; [9],934
same,"TNF-α, Donor 5",[1]; [9],594
same,"TNF-α, Donor 6",[1]; [9],1801
same,"TNF-α, MV+SD","[1]; mean of donors (Donor 2 not done), LPS 3 h pre-incubation, then LPS+peptide 24h, peptide 1000 µM",1711.5
same,"TNF-α, MV+SD","[1]; mean of donors (Donor 2 not done), LPS + peptide simultaneously, 24h, peptide 1000 µM",1065
same,"TNF-α, MV+SD",[1]; [10],3744
same,"TNF-α, MV+SD",[1]; [11],3667.4
same,"TNF-α, MV+SD",[1]; [12],3222.4
same,"TNF-α, MV+SD",[1]; [13],3303.4
same,"TNF-α, MV+SD",[1]; [14],3121.2
same,"TNF-α, MV+SD",[1]; [15],2762.2
same,"effect on LPS-induced TNF-α release (""inflammation"")",[1],inhibitory effect
same,average inhibition for TNF-α,TNF-α,around 30%
α-MSH [α-MSH Sigma],"TNF-α, %",[1]; [2],89.62%
same,"TNF-α, %",[1]; [3],81.56%
same,"TNF-α, %",[1]; [4],54.57%
same,"TNF-α, %",[1]; [6],70.97%
same,"TNF-α, %",[1]; [7],61.67%
same,"TNF-α, %",[1]; [8],32.86%
same,"TNF-α, Donor 2",[1]; [2],5005
same,"TNF-α, Donor 3",[1]; [2],4345
same,"TNF-α, Donor 4",[1]; [2],3968
same,"TNF-α, Donor 5",[1]; [2],2070
same,"TNF-α, Donor 6",[1]; [2],4286
same,"TNF-α, Donor 2",[1]; [3],4193
same,"TNF-α, Donor 3",[1]; [3],3883
same,"TNF-α, Donor 4",[1]; [3],3674
same,"TNF-α, Donor 5",[1]; [3],1799
same,"TNF-α, Donor 6",[1]; [3],4356
same,"TNF-α, Donor 2",[1]; [4],3009
same,"TNF-α, Donor 3",[1]; [4],2886
same,"TNF-α, Donor 4",[1]; [4],2073
same,"TNF-α, Donor 5",[1]; [4],942
same,"TNF-α, Donor 6",[1]; [4],2069
same,"TNF-α, Donor 2",[1]; [6],4098
same,"TNF-α, Donor 3",[1]; [6],3273
same,"TNF-α, Donor 4",[1]; [6],3116
same,"TNF-α, Donor 5",[1]; [6],1319
same,"TNF-α, Donor 6",[1]; [6],3100
same,"TNF-α, Donor 2",[1]; [7],3734
same,"TNF-α, Donor 3",[1]; [7],2776
same,"TNF-α, Donor 4",[1]; [7],2568
same,"TNF-α, Donor 5",[1]; [7],1237
same,"TNF-α, Donor 6",[1]; [7],2638
same,"TNF-α, Donor 2",[1]; [8],1207
same,"TNF-α, Donor 3",[1]; [8],2337
same,"TNF-α, Donor 4",[1]; [8],1248
same,"TNF-α, Donor 5",[1]; [8],713
same,"TNF-α, Donor 6",[1]; [8],1386
same,"TNF-α, MV+SD",[1]; [10],3934.8
same,"TNF-α, MV+SD",[1]; [11],3581
same,"TNF-α, MV+SD",[1]; [12],2395.8
same,"TNF-α, MV+SD",[1]; [13],2981.2
same,"TNF-α, MV+SD",[1]; [14],2590.6
same,"TNF-α, MV+SD",[1]; [15],1380.2
same,"effect on LPS-induced TNF-α release (""inflammation"")",[1],inhibitory effect
